Test results as given in US20190008850A1, “METHOD OF TREATING SCHIZOPHRENIA” (priority 2015, published 2019).
Counter-ions that a name gives are not always drawn.

System: individuals with schizophrenia
Test: Therapeutic administration of dextromethorphan in schizophrenia (summary statement)
Format: in vivo, human

SMILES: COc1ccc2c(c1)[C@]13CCCC[C@@H]1[C@H](C2)N(C)CC3 [dextromethorphan, morphinan, 3-methoxy-17-methyl-, (9a, 13a, 14a)-hydrobromide monohydrate]
- progression of schizophrenia (administered at first break): mitigated the progression of schizophrenia, and in some cases, reversed the disorder
- positive symptoms, in particular expressions of hostility (in vivo): appears to also reduce some positive symptoms
- frequency and intensity of negative symptoms (individuals with established schizophrenia diagnoses): significantly reduced
- negative symptoms of schizophrenia (therapeutic administration): substantially reduces
